One series has as its target T1, BtabCSP1 (Bemisia tabaci, UniProt D6N3A3).
T1 sequence (D6N3A3 20-126): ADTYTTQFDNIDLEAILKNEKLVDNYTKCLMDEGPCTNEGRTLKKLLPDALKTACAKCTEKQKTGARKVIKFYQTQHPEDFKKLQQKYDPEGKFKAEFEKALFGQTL
Nature of the series: biochemical. The series is classed as binding. On the procedure:
(§1) Protein-ligand binding affinity was determined for the three recombinant proteins. Emission fluorescence spectra were recorded on a Jasco FP-6500 Series fluorescence spectrofluorometer. […] Fluorescence was measured using an exciting wavelength of 337 nm. Emission spectrum was recorded between 350 and 500 nm.

The test system of series [1] is B- and Q-biotypes of B. tabaci. Nature of the series: Thiamethoxam cotton leaf-dip exposure, mortality. In kind it is in vivo, Bemisia tabaci. On the procedure: (§2) Thiamethoxam is one major neonicotinoid insecticide, known to act on the nicotinic acetylcholine receptors (nAChR) within the insect central nervous system. To expose B. tabaci to the neonicotinoid insecticide thiamethoxam (25% WG, Syngenta, China), we chose the cotton leaf-dip method. One week<-old adult forms from the laboratory colonies of B- and Q-biotypes of B. tabaci were collected separately and exposed in the laboratory conditions (26°C temperature, 60% humidity, 16/8 h day/night) to 0, 6.25, 12.5, 25 and 50 μg/ml of thiamethoxam, respectively. Significant mortality rate was observed only for higher doses […] at different exposure time.
(§3) The experiment started (time 0) when insecticide treated and non-treated plant discs (2.5 cm diameter) were individually placed on agar base in 20-ml glass vials.Twenty-eight whiteflies belonging either to B or Q-biotype were aspirated into each vial. Vials were capped with an absorbent cotton stopper and inverted. Insecticide-treated whiteflies fed in treated vials on cotton plant leaf discs dipped for 10 s in formulated thiamethoxam diluted with distilled water. Whiteflies kept in vials containing cotton plant leaf discs of the same diameter dipped for 10 s in distilled water only were used as controls (0 μg/ml of thiamethoxam). […]

The subject of series [2] is B. tabaci Q-biotype adults. Description: Thiamethoxam cotton leaf-dip exposure, gene expression by qRT-PCR, biotype Q. In kind it is in vivo, Bemisia tabaci. How it is done:
(§4) One-step Reverse transcriptase PCR (TAKARA Bio. Inc) was used to check for tissue-distribution of CSP1 following the method described in Liu et al.. qRT-PCR was used to measure the changes of CSP1, CSP2 and CSP3 gene expression during development and over insecticide exposure. In a typical qRT-PCR experiment, cDNA templates (20 ng/μl) were used in a total volume of 20 μl containing SYBR Green I PCR Master Mix (Roche) and 200 nM of each primer, using 96-well optical-grade PCR plates and matched optical-grade membrane of StepOne Plus ABI system. qPCR primers were specifically designed to generate an amplicon of about 100–150 bps:
(§5) qRT-PCR products were sequenced to attest primer specificity. Each sample in B and Q was analyzed in triplicates. Three biological samples were used for each time point at each developmental stage and in the experiments on the effects of insecticide on the expression of CSP genes (see below). Reactions were run in a StepOne Plus system with initial denaturing step consisting of 2 min at 50°C and 10 min at 95°C, followed by 40 cycles of 15 s at 95°C-30 s at 60°C and terminated by a dissociation curve program from 60 to 95°C with a heating rate of 0.1°C and a continuous fluorescence acquisition. Expression levels were determined using the relative 2(-Delta Delta C(T)) method. Data were statistically analyzed by one-way Anova in SPSS.
as §2
The experiment started (time 0) when insecticide treated and non-treated plant discs (2.5 cm diameter) were individually placed on agar base in 20-ml glass vials.Twenty-eight whiteflies belonging either to B or Q-biotype were aspirated into each vial. Vials were capped with an absorbent cotton stopper and inverted. Insecticide-treated whiteflies fed in treated vials on cotton plant leaf discs dipped for 10 s in formulated thiamethoxam diluted with distilled water. Whiteflies kept in vials containing cotton plant leaf discs of the same diameter dipped for 10 s in distilled water only were used as controls (0 μg/ml of thiamethoxam). After 1, 4, 24, 48 and 72 h post-exposure, all individuals in each category were collected in an eppendorf tube in treated and untreated groups of whiteflies in each of the two biotypes, kept on ice for 10 min and freeze-dried in nitrogen before storage at -70°C.

The subject of series [3] is B. tabaci B-biotype adults. Description: Thiamethoxam cotton leaf-dip exposure, gene expression by qRT-PCR, biotype B. In kind it is in vivo, Bemisia tabaci. On the procedure:
as §4, §5, §2, §3

For the next series, the target named is T2, BtabCSP2 (Bemisia tabaci, UniProt H6UKS9).
T2 sequence (H6UKS9 22-131): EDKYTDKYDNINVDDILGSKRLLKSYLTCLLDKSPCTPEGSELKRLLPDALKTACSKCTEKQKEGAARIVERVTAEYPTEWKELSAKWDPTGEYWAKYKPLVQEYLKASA
Nature of the series: biochemical. In kind it is binding. On the procedure:
as §1

The target in another series is T3, BtabCSP3 (Bemisia tabaci, UniProt A0A097GUB5).
T3 sequence (A0A097GUB5 21-138): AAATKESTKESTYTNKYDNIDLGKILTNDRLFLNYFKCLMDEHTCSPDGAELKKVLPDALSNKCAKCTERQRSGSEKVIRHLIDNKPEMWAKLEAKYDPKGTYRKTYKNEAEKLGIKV
Description: biochemical. In kind it is binding. On the procedure:
as §1

Where [4] appears, read: u.d. = binding constant not calculated, IC50>100 μM, read-out: BtabCSP2 Ki (u.d.).
[5] abbreviates: u.d. = binding constant not calculated, IC50>100 μM, read-out: BtabCSP3 Ki (u.d.).
Where [6] appears, read: u.d. = binding constant not calculated, IC50>100 μM, read-out: BtabCSP1 Ki (u.d.).
The mark [7] stands for this setting: competitive binding vs 1-NPN, three replicates ± SD, read-out: BtabCSP1 Ki.
[8] abbreviates: displacement of 1-NPN, read-out: IC50, BtabCSP1.

Where two headings read alike, the source gives them in different places.

On BtabCSP1, `CN1COCN(Cc2cnc(Cl)s2)/C1=N\[N+](=O)[O-]` [Thiamethoxam] came in with an IC50 of over 50 µM. For the same molecule, in series [1] (100 μg/ml, 72 h exposure), the mortality entry is given as “killed most of the whiteflies”. Further, the “doses with significant mortality rate” value in series [1] (different exposure time) was over 100 µg/mL. For the same molecule, the “CSP2 and CSP3 expression” value was “no time/dose effect” in series [2] (1-72 h, 0-50 μg/ml) and “no time/dose effect” in series [3] (1-72 h, 0-50 μg/ml). Moreover, the CSP1 gene expression entry is given as “no changes” in series [2] (1 and 4 h, all five doses); “gradual increase” in series [2] (24 h, gradual concentrations); “No effects” in series [2] (48 h); “no changes” in series [3] (1 and 4 h, all five doses). For the same molecule, in series [2] (72 h exposure, 12.5 and 50 μg/ml), the “increase in CSP1 gene expression (factor)” value is listed as 10–25. The CYP6CM1 expression entry in series [2] (sublethal dose) was “increased”. The CSP1 expression up-regulated in series [2] (sublethal doses, 24 and 72 h) is on record as 10–20 fold. Besides, the “CSP1 expression, time/dose effect” value in series [3] (1-72 h, 0-50 μg/ml) is “did not observe such a time/dose effect”. Also, the CYP6CX1 expression entry in series [3] (sublethal dose) was “reduced”.
Turning to `CCCCCCCCCCCCCC(C)=O` [2-Pentadecanone], the Ki on BtabCSP2 (setting [4]), on BtabCSP3 (setting [5]) and at BtabCSP1 (setting [6]) was over 100 µM each time.
As to `CCCC(O)CC` (stereo not drawn) [3-Hexanol], the Ki at BtabCSP2 (setting [4]), on BtabCSP3 (setting [5]) and on BtabCSP1 (setting [6]) was over 100 µM throughout.
`CCCCCC(C=O)=Cc1ccccc1` [α-Pentyl-cinnamaldehyde]: the Ki on BtabCSP2 (competitive binding vs 1-NPN, three replicates ± SD, listed as α-pentyl-cinnamaldehyde, read-out: BtabCSP2 Ki) stood at 10.3 µM; on BtabCSP2 (competitive binding vs 1-NPN, three replicates ± SD, read-out: BtabCSP2 Ki), 10.3 ± 1.17 µM; at BtabCSP3 (competitive binding vs 1-NPN, three replicates ± SD, listed as α-pentyl-cinnamaldehyde, read-out: BtabCSP3 Ki), 5.8 µM; at BtabCSP3 (competitive binding vs 1-NPN, three replicates ± SD, read-out: BtabCSP3 Ki), 5.82 ± 0.31 µM; on BtabCSP1 (setting [7]) it was 12.6 ± 1.3 µM. The IC50 at BtabCSP2 (displacement of 1-NPN) is 11.1 µM; on BtabCSP3 (displacement of 1-NPN), 6.5 µM.
`CCCCCCC` [n-Heptane]: the Ki on BtabCSP2 (setting [4]), at BtabCSP3 (setting [5]) and at BtabCSP1 (setting [6]) was over 100 µM in each case. Also, on BtabCSP1 (setting [8]), the IC50 is 14.6 to 95.1 µM.
`CCCCCC(C)=O` [2-Heptanone]: the Ki at BtabCSP2 (setting [4]) was over 100 µM; on BtabCSP3 (setting [5]), over 100 µM; on BtabCSP1 (setting [7]), 55.3 ± 4.21 µM. The IC50 at BtabCSP1 (setting [8]) was in the range of 14.6 to 95.1 µM.
With `CCCCCCO` [1-Hexanol], the Ki on BtabCSP2 (setting [4]) is over 100 µM; on BtabCSP3 (setting [5]), over 100 µM; on BtabCSP1 (setting [7]) it was 46.8 ± 1.37 µM. Besides, on BtabCSP1 (setting [8]), the IC50 was in the range of 14.6 to 95.1 µM.
